Results on 3 compounds are retold here after patent US20240197674A1, “NOVEL USE OF 3-(4-(BENZYLOXY)PHENYL)HEX-4-INOIC ACID DERIVATIVE” (Hyundai Pharm Co., Ltd., priority 2021, published 2024).

Holding throughout (format): cell-based
The subject of test [1] is C2C12 cells. Description: Expression of myogenic factors MyoG and MyHC by western blotting in C2C12 myoblasts. The note with it: differentiation medium (2% horse serum DMEM), 3 days. The protocol: (§1) C2C12 cells, which are myoblasts, were cultured and treated with a mixture of Compound A in a differentiation medium [2% horse serum (Cat No. 16050, Invitrogen, USA)-containing DMEM (Cat No. 11965, Invitrogen)] for 3 days. Afterward, the change in expression of myogenin (myogenic factor 4, MyoG) and a myosin heavy chain (MyHC), which are known as myogenic factors, was confirmed by western blotting. As primary antibodies, a MyoG antibody (Santa Cruz, sc-12732), a MyHC antibody (Santa Cruz, sc-32732), and a beta-actin antibody (Santa Cruz, sc-47778) were used. As a result, it can be confirmed that the higher the treatment concentration of Compound A, the higher the expression of MyoG and MyHC (FIG. 1).
(§2) Since Compound A is known as a G-protein-coupled receptor40 agonist (GPR40 agonist), it was confirmed whether the myogenesis promoting effect (Experimental Example 1) of Compound A is a general effect of GPR40 agonists. Specifically, experiments were conducted in the same manner as in Experimental Examples 1 and 2, except that C2C12 cells were treated with LY2922470 instead of Compound A. As a result of the experiments, it can be seen that, when the C2C12 cells were treated with LY2922470, the expression of myogenic factors MyoG and MyHC was inhibited (FIG. 7), the MyHC positive area decreased, and myotube formation was inhibited (FIG. 8).
On the technique in general: In western blotting, separated proteins are transferred to a membrane and probed.

The test system of test [2] is C2C12 cells. Description: MyHC immunohistochemistry: MyHC positive area, myotube thickness and myotube formation. The note with it: C2C12 myoblasts, differentiation medium, 3 days. The protocol:
as §1
In addition, C2C12 cells were treated with Compound A in the same manner as above, and then immunohistochemistry was performed with a MyHC antibody. As a result, it was confirmed that, as the treatment concentration of Compound A increases, the MyHC positive area and myotube thickness increase (FIG. 2).
as §2

Test [3] concerns C2C12 cells. The test is described as follows: Cell viability assay kit after palmitate treatment. The note with it: with palmitate in growth medium, 24 hours, versus palmitate only. The protocol:
(§3) Sarcopenia is known to be accelerated by diabetes, obesity, or inflammatory responses. Accordingly, it was confirmed whether Compound A can inhibit muscle loss even under the above conditions as follows. Palmitate (PA; P9767, Sigma-Aldrich, USA) was dissolved in ethanol and then mixed with bovine serum albumin (BSA; A7888, Sigma-Aldrich) dissolved in DMEM at a molar ratio of 6:1, followed by conjugation at 60° C. for 1 hour. Cells were treated with the resulting conjugate.
(§4) After mixing Compound A and the palmitate in a growth medium (10% FBS (Cat No. 16000, Invitrogen)-containing DMEM), C2C12 cells were treated with the resulting mixture for 24 hours, and then a Bax/Bcl2 ratio was confirmed by western blotting and cell viability was assessed using a cell viability assay kit (Dozen, EZ-3000). Primary antibodies used herein were the Bax antibody (Santa Cruz, sc-7480) and Bcl2 antibody (Santa Cruz, sc-7382). Bax is a protein inducing apoptosis, and Bcl2 is a protein inhibiting apoptosis by hindering the migration of Bax to mitochondria.
as §2

For test [4], the system named is C2C12 cells. Description: Bax/Bcl2 ratio by western blotting after palmitate treatment. The settings on record: with palmitate in growth medium, 24 hours, versus palmitate only. How it is done:
as §3, §4

Test [5] relates to C2C12 cells. The test is described as follows: MyoG and MyHC expression after palmitate treatment and 3 days of differentiation. The settings on record: with palmitate 24 hours, then 3 days differentiation, versus decrease by palmitate only. The protocol:
as §3
(§5) Compound A and the palmitate were mixed in a growth medium (10% FBS-containing DMEM), and C2C12 cells were treated with the resulting mixture. After 24 hours, the medium was exchanged with a fresh […] to induce differentiation for 3 days, and after 3 days, the cells were collected to confirm the expression of MyoG and MyHC, and the changes in MyHC positive area and myotube thickness.

The test system of test [6] is C2C12 cells. Description: MyHC positive area and myotube thickness after palmitate treatment and 3 days of differentiation. The note with it: with palmitate 24 hours, then 3 days differentiation, versus decrease by palmitate only. The protocol: as §3, §5
Test [7] concerns C2C12 cells. Description: Atrogin-1 expression in differentiated C2C12 myotubes treated with palmitate. The note with it: C2C12 differentiated 6 days into myotubes, with palmitate in differentiation medium, versus palmitate only. How it is done: as §3
(§6) Atrogin-1 is a type of E3 ubiquitin ligase and a marker associated with muscular atrophy, and it is known that, as its gene expression increases, muscle is broken down. To confirm the change in atrogin-1 expression by Compound A, C2C12 cells were cultured in a differentiation medium for 6 days to induce differentiation into myotubes, and the differentiated cells were treated with a mixture of Compound A and palmitate in a differentiation medium. Afterward, an expression level was confirmed using an atrogin-1 antibody (Abnova, PAB15627), and cell viability was measured.

Test [8] has as its system C2C12 cells. Description: Cell viability of differentiated C2C12 myotubes treated with palmitate. The settings on record: C2C12 differentiated 6 days into myotubes, with palmitate in differentiation medium, versus palmitate only. The protocol: as §3, §6
[9] abbreviates: immunohistochemistry with MyHC antibody.

Entries after “also recorded” stand apart in the source; their conditions may differ.

On to `CC#C[C@@H](CC(=O)O)c1ccc(OCc2ccc(CN3CCCc4cccc(OC)c43)s2)cc1` [LY2922470, reference compound], for which, in the test with C2C12 cells [1], the “expression of MyHC” value is “inhibited” and the “expression of MyoG” value is “inhibited”. For the same compound, the myotube formation result in the test with C2C12 cells [2] is “inhibited”. In the test on C2C12 cells [2] (setting [9]), the MyHC positive area result is “decreased”. Also, the “cell viability (apoptosis caused by palmitate)” value with C2C12 cells [3] is reported as “did not inhibit apoptosis”.

With `CC#C[C@@H](CC(=O)O)c1ccc(OCc2cccc(C3=CCC4(CC3)OCCO4)c2)cc1` [Compound A, (3S)-3-(4-(3-(1,4-dioxaspiro[4,5]des-7-en-8-yl)benzyloxy)phenyl)hex-4-inoic acid], in the test on C2C12 cells [1], the “expression of MyHC” value is recorded as “higher” and the “expression of MyoG” value is on record as “higher”. For the same compound, in the test with C2C12 cells [2] (setting [9]), the MyHC positive area result is given as “increase” and the myotube thickness entry was “increase”. In the test on C2C12 cells [4], the Bax/Bcl2 ratio result is on record as “decreased”. Further, the “cell viability (apoptosis caused by palmitate)” value in the test with C2C12 cells [3] is given as “increased; also recorded: inhibited apoptosis”. Besides, in the test on C2C12 cells [5], the “expression of MyHC” value was “reversed” and the “expression of MyoG” value was “reversed”. Further, in the test with C2C12 cells [6], the MyHC positive area result is on record as “reversed” and the myotube thickness entry is “reversed”. Besides, in the test on C2C12 cells [7], the atrogin-1 expression entry was “decreased”. The cell viability result in the test on C2C12 cells [8] is reported as “recovered”.

Turning to `CC#C[C@@H](CC(=O)O)c1ccc(OCc2cccc(C3=CCC4(CC3)OCCO4)c2)cc1` [compound of Formula 1, (3S)-3-(4-(3-(1,4-dioxaspiro[4,5]des-7-en-8-yl)benzyloxy)phenyl)hex-4-inoic acid], in the test on C2C12 cells [1], the “expression of MyHC” value is “increases” and the “expression of MyoG” value is given as “increases”. Also, in the test on C2C12 cells [2], the myotube formation entry is “promoted”. Moreover, the Bax/Bcl2 ratio entry with C2C12 cells [4] is “reversed”. Also, in the test with C2C12 cells [3], the “cell viability (apoptosis caused by palmitate)” value is given as “reversed”. In the test with C2C12 cells [5], the “expression of MyHC” value is on record as “reversed” and the “expression of MyoG” value is “reversed”. Further, in the test on C2C12 cells [6], the MyHC positive area entry was “reversed” and the myotube thickness result is given as “reversed”.
